# Values quoted from earlier work as cited in patent publication US20090193593A1, “METHOD FOR REFRESHING FABRIC ARTICLES” (priority 2008, published 2009).
# Counter-ions that a name gives are not always drawn.
row,Solubility in water,Structure (SMILES)
1,about 1.8%,"[H]/N=C(\N/C(=N/[H])NCCCCCCNC(=N)NC(=N)Nc1ccc(Cl)cc1)Nc1ccc(Cl)cc1 [chlorhexidine diacetate salt, 1,1′-hexamethylene bis(5-(p-chlorophenyl)biguanide), reference compound]"
2,about 70%,"[H]/N=C(\N/C(=N/[H])NCCCCCCNC(=N)NC(=N)Nc1ccc(Cl)cc1)Nc1ccc(Cl)cc1 [chlorhexidine digluconate salt, 1,1′-hexamethylene bis(5-(p-chlorophenyl)biguanide), reference compound]"

# Continued, molecule first:
row,Structure (SMILES),Solubility in water
1,OCCOc1ccccc1 [2-phenoxyethanol],about 2.67%
2,OCCc1ccccc1 [2-phenylethanol],about 2%
3,OCc1ccccc1 [benzyl alcohol],about 4%
